Laboratory results: patent US9586951B2 (FUJIFILM Corporation, priority 2013, dated 2017)
Like-named read-outs stand apart in the source and are kept apart here.

Target: T1, ATM (Homo sapiens, UniProt Q13315)
T1 construct: detecting phosphorylation of Chk2 in a human non-small cell lung cancer cell line NCI-H460 (ATCC company); host or cells: NCI-H460 human non-small cell lung cancer cells
Assay: ATM inhibition test (phosphorylation of Chk2 generated by ionizing radiation, AlphaScreen SureFire)
Assay type: cell-based
Settings: phosphorylated Chk2 in NCI-H460 cells, ionizing radiation 8Gy, 1 hour after test compound treatment
Method in brief: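 In NCI-H460 cells, radiation-triggered Chk2 phosphorylation (8Gy, 1 h) is detected by AlphaScreen SureFire following 1 h compound exposure.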

[1] = read-out: ATM inhibitory activity

T1 sequence (Q13315 whole entry): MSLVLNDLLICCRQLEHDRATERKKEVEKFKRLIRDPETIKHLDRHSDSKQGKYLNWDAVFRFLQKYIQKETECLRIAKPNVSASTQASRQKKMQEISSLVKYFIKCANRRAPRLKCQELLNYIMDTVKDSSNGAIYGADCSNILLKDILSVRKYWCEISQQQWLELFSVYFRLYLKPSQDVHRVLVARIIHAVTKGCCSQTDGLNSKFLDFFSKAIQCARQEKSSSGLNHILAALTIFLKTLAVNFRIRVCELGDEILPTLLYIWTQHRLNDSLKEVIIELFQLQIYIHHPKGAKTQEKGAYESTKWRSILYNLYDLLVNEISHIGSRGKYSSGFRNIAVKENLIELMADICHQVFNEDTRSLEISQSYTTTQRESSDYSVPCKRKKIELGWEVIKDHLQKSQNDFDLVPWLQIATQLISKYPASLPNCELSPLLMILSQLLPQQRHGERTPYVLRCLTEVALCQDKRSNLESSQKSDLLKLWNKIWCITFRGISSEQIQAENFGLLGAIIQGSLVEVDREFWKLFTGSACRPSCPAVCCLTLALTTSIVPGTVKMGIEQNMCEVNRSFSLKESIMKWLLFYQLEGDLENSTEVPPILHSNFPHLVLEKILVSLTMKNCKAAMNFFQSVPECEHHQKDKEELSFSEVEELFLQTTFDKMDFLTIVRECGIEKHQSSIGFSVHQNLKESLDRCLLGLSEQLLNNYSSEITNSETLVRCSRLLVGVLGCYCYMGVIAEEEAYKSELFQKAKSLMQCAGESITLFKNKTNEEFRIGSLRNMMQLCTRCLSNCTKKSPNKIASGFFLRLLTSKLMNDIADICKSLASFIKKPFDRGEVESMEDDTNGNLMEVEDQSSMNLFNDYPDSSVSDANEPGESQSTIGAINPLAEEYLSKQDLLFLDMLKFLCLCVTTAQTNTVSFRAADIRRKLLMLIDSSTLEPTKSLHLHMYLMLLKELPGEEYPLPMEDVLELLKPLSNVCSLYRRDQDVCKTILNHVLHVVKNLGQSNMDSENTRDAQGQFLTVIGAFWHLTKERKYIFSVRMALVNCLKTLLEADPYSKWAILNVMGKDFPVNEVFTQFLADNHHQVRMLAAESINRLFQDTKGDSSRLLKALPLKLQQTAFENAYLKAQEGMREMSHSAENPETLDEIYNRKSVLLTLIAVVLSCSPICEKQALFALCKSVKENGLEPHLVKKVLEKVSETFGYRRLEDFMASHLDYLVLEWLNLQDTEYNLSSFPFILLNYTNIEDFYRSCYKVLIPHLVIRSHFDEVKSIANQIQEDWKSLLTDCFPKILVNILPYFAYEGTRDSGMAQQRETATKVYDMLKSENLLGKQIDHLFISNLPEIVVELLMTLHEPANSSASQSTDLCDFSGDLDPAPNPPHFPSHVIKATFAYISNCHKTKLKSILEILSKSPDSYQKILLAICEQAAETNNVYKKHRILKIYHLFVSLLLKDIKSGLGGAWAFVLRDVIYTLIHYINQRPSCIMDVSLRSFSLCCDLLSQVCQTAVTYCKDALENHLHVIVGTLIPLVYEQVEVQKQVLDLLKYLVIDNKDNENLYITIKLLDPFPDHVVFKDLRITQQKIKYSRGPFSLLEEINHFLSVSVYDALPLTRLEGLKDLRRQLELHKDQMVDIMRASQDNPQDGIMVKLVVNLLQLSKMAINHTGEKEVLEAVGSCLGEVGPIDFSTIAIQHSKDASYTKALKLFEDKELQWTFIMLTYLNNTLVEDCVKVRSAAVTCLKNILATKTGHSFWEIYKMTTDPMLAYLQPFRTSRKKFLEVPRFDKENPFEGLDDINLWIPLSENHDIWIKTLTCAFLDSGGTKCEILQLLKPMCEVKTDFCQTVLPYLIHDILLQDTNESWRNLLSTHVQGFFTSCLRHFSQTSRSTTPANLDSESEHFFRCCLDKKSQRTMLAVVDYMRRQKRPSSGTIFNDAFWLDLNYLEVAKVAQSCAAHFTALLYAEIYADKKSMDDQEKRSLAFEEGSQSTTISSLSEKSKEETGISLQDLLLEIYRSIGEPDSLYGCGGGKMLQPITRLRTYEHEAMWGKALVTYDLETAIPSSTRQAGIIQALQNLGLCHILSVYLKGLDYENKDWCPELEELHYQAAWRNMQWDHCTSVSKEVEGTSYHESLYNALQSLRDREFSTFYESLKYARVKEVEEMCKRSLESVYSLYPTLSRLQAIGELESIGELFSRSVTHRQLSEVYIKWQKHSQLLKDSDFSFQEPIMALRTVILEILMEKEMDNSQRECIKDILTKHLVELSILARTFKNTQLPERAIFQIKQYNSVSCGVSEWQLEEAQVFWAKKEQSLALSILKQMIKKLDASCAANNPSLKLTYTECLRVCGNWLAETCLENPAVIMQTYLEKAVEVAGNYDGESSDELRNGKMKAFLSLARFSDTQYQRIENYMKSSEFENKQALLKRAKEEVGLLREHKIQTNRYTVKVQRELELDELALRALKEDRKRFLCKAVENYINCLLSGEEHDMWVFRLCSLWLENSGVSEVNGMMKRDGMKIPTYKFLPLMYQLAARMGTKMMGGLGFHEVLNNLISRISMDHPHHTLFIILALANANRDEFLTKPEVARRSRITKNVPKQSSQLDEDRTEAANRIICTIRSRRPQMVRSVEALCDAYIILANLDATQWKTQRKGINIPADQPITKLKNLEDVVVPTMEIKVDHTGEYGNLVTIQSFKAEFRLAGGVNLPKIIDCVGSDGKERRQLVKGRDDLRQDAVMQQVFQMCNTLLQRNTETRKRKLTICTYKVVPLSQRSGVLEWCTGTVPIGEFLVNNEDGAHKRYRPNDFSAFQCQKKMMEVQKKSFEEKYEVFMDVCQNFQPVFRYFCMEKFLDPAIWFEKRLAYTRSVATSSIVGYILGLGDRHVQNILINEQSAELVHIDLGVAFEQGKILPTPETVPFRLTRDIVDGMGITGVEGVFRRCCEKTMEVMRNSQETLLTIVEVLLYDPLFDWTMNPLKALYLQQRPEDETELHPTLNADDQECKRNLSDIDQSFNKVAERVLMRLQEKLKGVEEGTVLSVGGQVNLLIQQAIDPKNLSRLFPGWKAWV

## COc1ccc(CCN2CCC(Nc3ccc4c(c3)Cc3cccc(-c5cc(N6CCOCC6)cc(=O)[nH]5)c3O4)CC2)cc1 [Example 2-30-2, 6-(7-((1-(4-Methoxyphenethyl)piperidin-4-yl)amino)-9H-xanthen-4-yl)-4-morpholino pyridin-2 (1H)-one]
[1]
  IC50: 100 to 500 nM

## O=c1cc(N2CCOCC2)cc(-c2cccc3c2Oc2ccc(NC4CCN(CCc5ccncc5)CC4)cc2C3)[nH]1 [Example 2-30-7, 4-Morpholino-6-(7-((1-(2-(pyridin-4-yl)ethyl)piperidin-4-yl)amino)-9H-xanthen-4-yl)pyridin-2(1H)-one]
[1]
  IC50: 100 to 500 nM

## CCC(Nc1ccc2c(c1)Sc1cccc(-c3cc(N4CCOCC4)cc(=O)[nH]3)c1S2)[C@@H](N)CC (stereo partly drawn) [Example 1-20-6, 6-(7-(((4S)-4-Aminohexan-3-yl)amino)thianthren-1-yl)-4-morpholino pyridin-2(1H)-one]
[1]
  IC50: 100 to 500 nM

## CC(CN(C)C1CCCCC1)Nc1ccc2c(c1)Sc1cccc(-c3cc(N4CCOCC4)cc(=O)[nH]3)c1S2 (centres unmarked) [Example 1-13-9, 6-(7-((1-(Cyxlohexyl(methyl)amino)propan-2-yl)amino)thianthren-1-yl)-4-morpholino pyridin-2(1H)-one]
[1]
  IC50: 100 to 500 nM

## O=c1cc(N2CCOCC2)cc(-c2cccc3c2Oc2ccc(NC4CCN(c5ccncc5)CC4)cc2C3)[nH]1 [Example 2-2-22, 4-Morpholino-6-(7-((1-(pyridin-4-yl)piperidin-4-yl)amino)-9H-xanthen-4-yl) pyridin-2(1H)-one]
[1]
  IC50: < 100 nM

## O=c1cc(N2CCOCC2)cc(-c2cccc3c2Oc2ccc(NCc4cncc(-c5cccnc5)c4)cc2C3)[nH]1 [Example 2-2-57, 6-(7-(([3,3′-Bipyridin]-5-ylmethyl)amino)-9H-xanthen-4-yl)-4-morpholino pyridin-2 (1H)-one]
[1]
  IC50: 100 to 500 nM

## COc1cncc(CN2CCC(Nc3ccc4c(c3)Sc3cccc(-c5cc(N6CCOCC6)cc(=O)[nH]5)c3S4)CC2)c1 [Example 1-24-16, 6-(7-((1-((5-Methoxypyridin-3-yl)methyl)piperidin-4-yl)amino)thianthren-1-yl)-4-morpholinopyridin-2(1H)-one]
[1]
  IC50: 100 to 500 nM

## O=C(CN1CCCOCC1)Nc1ccc2c(c1)Sc1cccc(-c3cc(N4CCOCC4)cc(=O)[nH]3)c1S2 [Example 1-7-3, N-(6-(4-morpholino-6-oxo-1,6-dihydropyridin-2-yl)thianthren-2-yl)-2-(1,4-oxazepan-4-yl)acetamide]
[1]
  IC50: 500 to 2000 nM

## Cc1cnc(C(CN(C)C)Nc2ccc3c(c2)Sc2cccc(-c4cc(N5CCOCC5)cc(=O)[nH]4)c2S3)cn1 (centres unmarked) [Example 1-32, 6-(7-((2-(dimethylamino)-1-(5-methylpyrazin-2-yl)ethyl)amino)thianthren-1-yl)-4-morpholinopyridin-2(1H)-one]
[1]
  IC50: 100 to 500 nM

## N#Cc1ccnc(CNc2ccc3c(c2)Cc2ccnc(-c4cc(N5CCOCC5)cc(=O)[nH]4)c2O3)c1 [Example 2-41-16, 2-(((1-(4-Morpholino-6-oxo-1,6-dihydropyridin-2-yl)-5H-chromeno[2,3-c]pyridin-7-yl)amino)methyl)isonicotinonitrile]
[1]
  IC50: 100 to 500 nM

## CNCC(Nc1ccc2c(c1)Sc1cccc(-c3cc(N4CCOCC4)cc(=O)[nH]3)c1S2)c1nccc(C)n1 (centres unmarked) [Example 1-16-5, 6-(7-((2-(Methylamino)-1-(4-methylpyrimidin-2-yl)ethyl)amino)thianthren-1-yl)-4-morpholinopyridin-2(1H)-one]
[1]
  IC50: 500 to 2000 nM

## O=c1cc(N2CCOCC2)cc(-c2cccc3c2Oc2ccc(NC4CCN(c5ccccn5)CC4)cc2C3)[nH]1 [Example 2-2-27, 4-Morpholino-6-(7-((1-(pyridin-2-yl)piperidin-4-yl)amino)-9H-xanthen-4-yl) pyridin-2(1H)-one]
[1]
  IC50: 100 to 500 nM

## CCN(C)CCC(Nc1ccc2c(c1)Sc1cccc(-c3cc(N4CCOCC4)cc(=O)[nH]3)c1S2)c1cnc(C)cn1 (single isomer, unassigned) [Example 1-51-10, 6-(7-((3-(Ethyl(methyl)amino)-1-(5-methylpyrazin-2-yl)propyl)amino)thianthren-1-yl)-4-morpholino pyridin-2(1H)-one]
[1]
  IC50: < 100 nM

## CCN(C)CCC(Nc1ccc2c(c1)Sc1cccc(-c3cc(N4CCOCC4)cc(=O)[nH]3)c1S2)c1ccc(C)cn1 (single isomer, unassigned) [Example 1-51-9, 6-(7-((3-(Ethyl(methyl)amino)-1-(5-methylpyridin-2-yl)propyl)amino)thianthren-1-yl)-4-morpholino pyridin-2 (1H)-one]
[1]
  IC50: < 100 nM

## Cc1cnc(C(CCN(C)C)CNc2ccc3c(c2)Sc2cccc(-c4cc(N5CCOCC5)cc(=O)[nH]4)c2S3)cn1 (centres unmarked) [Example 12-3, 6-(7-((4-(Dimethylamino)-2-(5-methylpyrazin-2-yl)butyl)amino)thianthren-1-yl)-4-morpholinopyridin-2(1H)-one]
[1]
  IC50: 100 to 500 nM

## Cc1nccnc1CNc1ccc2c(c1)Sc1cccc(-c3cc(N4CCOCC4)cc(=O)[nH]3)c1S2 [Example 1-12-61, 6-(7-(((3-Methylpyrazin-2-yl)methyl)amino)thianthren-1-yl)-4-morpholino pyridin-2 (1H)-one]
[1]
  IC50: 100 to 500 nM

## N#Cc1ccc(CNc2ccc3c(c2)Cc2ccnc(-c4cc(N5CCOCC5)cc(=O)[nH]4)c2O3)s1 [Example 2-41-17, 5-(((1-(4-Morpholino-6-oxo-1,6-dihydropyridin-2-yl)-5H-chromeno[2,3-c]pyridin-7-yl)amino)methyl)thiophene-2-carbonitrile]
[1]
  IC50: 100 to 500 nM

## CN(C)Cc1cc(CNc2ccc3c(c2)Cc2cccc(-c4cc(N5CCOCC5)cc(=O)[nH]4)c2O3)ccn1 [Example 2-21-8, 6-(7-(((2-((Dimethylamino)methyl)pyridin-4-yl)methyl)amino)-9H-xanthen-4-yl)-4-morpholino pyridin-2(1H)-one]
[1]
  IC50: 500 to 2000 nM

## O=c1cc(N2CCOCC2)cc(-c2cccc3c2Sc2ccc(NCc4cccc(N5CCOCC5)n4)cc2S3)[nH]1 [Example 1-12-32, 4-Morpholino-6-(7-(((6-morpholinopyridin-2-yl)methyl)amino)thianthren-1 yl)pyridin-2(1H)-one]
ATM inhibitory activity
  IC50: 100 to 500 nM

## Nc1ccc2c(c1)Cc1cc(F)cc(-c3cc(N4CCOCC4)cc(=O)[nH]3)c1O2 [Example 2-48-1, 6-(7-amino-2-fluoro-9H-xanthen-4-yl)-4-morpholinopyridin-2(1H)-one]
[1]
  IC50: 500 to 2000 nM

## O=c1cc(N2CCOCC2)cc(-c2cccc3c2Sc2ccc(N4CC4CN4CCOCC4)cc2S3)[nH]1 (centres unmarked) [Example 1-38, 4-morpholino-6-(7-(2-(morpholinomethyl)aziridin-1-yl)thianthren-1-yl)pyridin-2(1H)-one]
ATM inhibitory activity
  IC50: 100 to 500 nM

## Cc1nccc(C(C)Nc2ccc3c(c2)Sc2cccc(-c4cc(N5CCOCC5)cc(=O)[nH]4)c2S3)n1 (centres unmarked) [Example 1-12-80, 6-(7-((1-(2-Methylpyrimidin-4-yl)ethyl)amino)thianthren-1-yl)-4-morpholino pyridin-2(1H)-one]
[1]
  IC50: 100 to 500 nM

## Cc1ccc(C(Nc2ccc3c(c2)Sc2cccc(-c4cc(N5CCOCC5)cc(=O)[nH]4)c2S3)[C@H]2CN(C)CCO2)nc1 (single isomer, unassigned) [Example 1-56-12]
[1]
  IC50: < 100 nM

## COc1ccc(CNc2ccc3c(c2)Cc2cccc(-c4cc(N5CCOCC5)cc(=O)[nH]4)c2O3)nc1 [Example 2-2-42, 6-(7-(((5-Methoxypyridin-2-yl)methyl)amino)-9H-xanthen-4-yl)-4-morpholino pyridin-2(1H)-one]
[1]
  IC50: 100 to 500 nM

## COc1ccc(CCN2CCC(Nc3ccc4c(c3)Sc3cccc(-c5cc(N6CCOCC6)cc(=O)[nH]5)c3S4)CC2)cc1 [Example 1-27, 6-(7-((1-(4-methoxyphenethyl)piperidin-4-yl)amino)thianthren-1-yl)-4-morpholinopyridin-2(1H)-one]
[1]
  IC50: 100 to 500 nM

## CC(=O)Nc1cccc(CNc2ccc3c(c2)Cc2cccc(-c4cc(N5CCOCC5)cc(=O)[nH]4)c2O3)n1 [Example 2-2-73, N-(6-(((5-(4-Morpholino-6-oxo-1,6-dihydropyridin-2-yl)-9H-xanthen-2-yl)amino)methyl)pyridin-2-yl) acetamide]
[1]
  IC50: 500 to 2000 nM

## CC[C@H](N)C(C)Nc1ccc2c(c1)Sc1cccc(-c3cc(N4CCOCC4)cc(=O)[nH]3)c1S2 (stereo partly drawn) [Example 1-20-5, 6-(7-(((3S)-3-Aminopentan-2-yl)amino)thianthren-1-yl)-4-morpholino pyridin-2(1H)-one]
[1]
  IC50: 100 to 500 nM

## CC(CN1CCOCC1)Nc1ccc2c(c1)Sc1cccc(-c3cc(N4CCOCC4)cc(=O)[nH]3)c1S2 (single isomer, unassigned) [Example 1-13-2-3, 4-morpholino-6-(7-((1-morpholinopropan-2-yl)amino)thianthren-1-yl)pyridin-2(1H)-one]
[1]
  IC50: 100 to 500 nM

## CC1CCCCN1CC(CO)Nc1ccc2c(c1)Sc1cccc(-c3cc(N4CCOCC4)cc(=O)[nH]3)c1S2 (single isomer, unassigned) [Example 1-37-6, 6-(7-((1-Hydroxy-3-(2-methylpiperidin-1-yl)propan-2-yl)amino)thianthren-1-yl)-4-morpholino pyridin-2(1H)-one]
[1]
  IC50: 100 to 500 nM

## COc1ncc(CNc2ccc3c(c2)Sc2cccc(-c4cc(N5CCOCC5)cc(=O)[nH]4)c2S3)cn1 [Example 1-12-10, 6-(7-(((2-Methoxypyrimidin-5-yl)methyl)amino)thianthren-1-yl)-4-morpholino pyridin-2(1H)-one]
[1]
  IC50: 100 to 500 nM

## CC(C)CC(Nc1ccc2c(c1)Sc1cccc(-c3cc(N4CCOCC4)cc(=O)[nH]3)c1S2)[C@H](C)N (stereo partly drawn) [Example 1-20-4, 6-(7-(((2S)-2-Amino-5-methylhexan-3-yl)amino)thianthren-1-yl)-4-morpholino pyridin-2(1H)-one]
[1]
  IC50: 500 to 2000 nM

## N#Cc1ccc(CCN2CCC(Nc3ccc4c(c3)Cc3cccc(-c5cc(N6CCOCC6)cc(=O)[nH]5)c3O4)CC2)cc1 [Example 2-30-19, 4-(2-(4-((5-(4-Morpholino-6-oxo-1,6-dihydropyridin-2-yl)-9H-xanthen-2-yl)amino)piperidin-1-yl)ethyl) benzonitrile]
[1]
  IC50: 500 to 2000 nM
